In US20050124660A1, “Novel medical uses of compounds showing CB1-antagonistic activity and combination treatment involving said compounds” (priority 2003, published 2005):
pIC50, pKi: −log10 of the molar value. Where two headings read alike, the source gives them in different places.

Assays:
[1] = target: T1, porcine pancreatic lipase (Sus scrofa, UniProt P00591); details: cited from earlier work; for inhibitory activity, fold stronger than that of THL: porcine pancreatic lipase, relative to THL; for pIC50: read-out: IC50 for inhibition of hydrolysis of triolein by porcine pancreatic lipase
T1 sequence (P00591 1-450): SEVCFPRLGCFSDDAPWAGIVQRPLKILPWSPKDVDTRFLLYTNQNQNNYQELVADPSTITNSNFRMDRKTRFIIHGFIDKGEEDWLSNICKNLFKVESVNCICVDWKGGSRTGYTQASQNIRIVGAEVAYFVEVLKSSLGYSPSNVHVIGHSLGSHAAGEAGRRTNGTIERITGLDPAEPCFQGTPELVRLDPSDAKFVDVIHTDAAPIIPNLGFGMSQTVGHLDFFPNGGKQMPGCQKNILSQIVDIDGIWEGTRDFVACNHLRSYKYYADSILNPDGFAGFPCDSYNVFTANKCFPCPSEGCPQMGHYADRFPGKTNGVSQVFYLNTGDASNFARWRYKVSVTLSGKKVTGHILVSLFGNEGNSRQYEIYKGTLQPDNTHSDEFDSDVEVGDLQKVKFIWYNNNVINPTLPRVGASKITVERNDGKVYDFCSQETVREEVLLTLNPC

plasma lipases = details: cited from earlier work; for pIC50: read-out: IC50 for inhibition of plasma lipases
[2] = system: bacterial and fungal lipases; details: cited from earlier work
[3] = patients on atypical antipsychotics; cited from earlier work
[4] = cited from earlier work
[5] = cited from earlier work; remark: listed apart in the source
[6] = in vivo; cited from earlier work
[7] = target: T2, human cannabinoid CB1 receptors (Homo sapiens, UniProt P21554); test: In vitro CB1 antagonism, functional studies in CHO cells expressing human CB1 receptor; format: cell-based
T2 construct: expressed in transfected cells
T2 sequence (P21554 whole entry): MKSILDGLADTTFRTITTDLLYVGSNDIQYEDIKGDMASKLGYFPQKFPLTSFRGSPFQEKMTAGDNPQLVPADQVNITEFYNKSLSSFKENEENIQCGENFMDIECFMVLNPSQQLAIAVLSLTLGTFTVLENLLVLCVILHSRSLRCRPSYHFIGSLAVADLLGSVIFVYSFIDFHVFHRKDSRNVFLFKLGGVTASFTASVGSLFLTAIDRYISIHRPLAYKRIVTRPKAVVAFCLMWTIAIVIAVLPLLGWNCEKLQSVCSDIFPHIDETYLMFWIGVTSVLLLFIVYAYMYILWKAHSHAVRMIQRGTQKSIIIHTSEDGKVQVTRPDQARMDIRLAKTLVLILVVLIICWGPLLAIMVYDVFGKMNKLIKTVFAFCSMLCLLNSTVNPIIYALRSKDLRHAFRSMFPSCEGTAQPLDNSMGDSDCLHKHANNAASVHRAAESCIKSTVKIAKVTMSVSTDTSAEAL
Procedure: The cannabinoid CB1 antagonistic activity of compounds of the formulas (I), (II), III), (IV) or (V) is also described in the WO 03/026647, WO 03/027076, WO 03/026648 or WO 03/078413, and was determined by functional studies using CHO cells in which human cannabinoid CB1 receptors are stably expressed. Adenylyl cyclase was stimulated using forskolin and measured by quantifying the amount of accumulated cyclic AMP. Concomitant activation of CB1 receptors by CB1 receptor agonists (e.g. CP-55,940 or (R)-WIN-55,212-2) can attenuate the forskolin-induced accumulation of cAMP in a concentration-dependent manner. This CB1 receptor-mediated response can be antagonized by CB1 receptor antagonists such as the compounds used in the present invention.
The cannabinoid CB1 receptor antagonistic, agonistic or partial agonistic activity of compounds e.g. formula (V) of the invention can be also determined by functional studies using the human CB1 receptor cloned in Chinese hamster ovary (CHO) cells according to the following protocol. CHO cells were grown in a DMEM culture medium, supplemented with 10% heat-inactivated fetal calf serum. Medium was aspirated and replaced by DMEM, without fetal calf serum, but containing [^3H]-Arachidonic acid and incubated overnight in a cell culture stove (5% CO2/95% air; 37° C.; water-saturated atmosphere). During this period [^3H]-Arachidonic acid was incorporated in membrane phospholipids. On the test day, medium was aspirated and cells were washed three times using 0.5 ml phosphate-buffered saline, containing 0.2% bovine serum albumin. Stimulation of the CB1 receptor by WIN 55,212-2 led to activation of PLA2 followed by release of [^3H]-Arachidonic acid into the medium. This WIN 55,212-2-induced release was concentration-dependently antagonized by CB1 receptor antagonists.

[8] = target: T3, human cannabis CB1 receptor (Homo sapiens, UniProt P21554); test: In vitro affinity for cannabinoid CB1 receptors, [3H]CP-55,940 radioligand, CHO cell membrane preparations; format: binding; details: for Ki: Human cannabinoid-CB1 receptors, read-out: In vitro affinity pK1 value (converted)
T3 construct: expressed in transfected cells; host or cells: Chinese hamster ovary (CHO) cells, stably transfected; membrane preparation
T3 sequence (P21554 whole entry): as above
Procedure: After incubation of a freshly prepared cell membrane preparation with the [3H]-ligand, with or without addition of compounds of the invention, separation of bound and free ligand was performed by filtration over glass fibre filters. Radioactivity on the filter was measured by liquid scintillation counting.

DTH response = details: mice, 0.781-50 mg/kg (i.p.) or 0.5 mg/kg (per os); cited from earlier work
[9] = system: carragheenin-induced swelling; details: mice; cited from earlier work
[10] = treatment groups 60, 120 and 240 mg

## CCCCCCC[C@@H](C[C@@H]1OC(=O)[C@H]1CCCCCCCC(C)C)OC(=O)CNC=O [Panclicin C]
[1]
  irreversibility of pancreatic lipase inhibition: irreversibly inhibit pancreatic lipase
  inhibitory activity, fold stronger than that of THL: 2 fold
  pIC50: 6.21
Plasma lipases
  pIC50: 6.54
[2]
  inhibition of bacterial and fungal lipases: profiles similar to those for porcine pancreatic lipase

## CCCCCCC[C@@H](C[C@@H]1OC(=O)[C@H]1CCCCCCCC(C)C)OC(=O)[C@H](C)NC=O [Panclicin A]
[1]
  irreversibility of pancreatic lipase inhibition: irreversibly inhibit pancreatic lipase
  pIC50: 5.54
Plasma lipases
  pIC50: 6.00
Plasma lipases; relative to THL
  potency on plasma lipases compared with THL: same potency as THL
[2]
  inhibition of bacterial and fungal lipases: profiles similar to those for porcine pancreatic lipase

## O=C(NN1CCCCC1)c1nc(-c2ccc(Cl)cc2Cl)n(-c2ccc(C(F)(F)F)cc2)n1 [Example 14, 5-(2,4-Dichlorophenyl)-N-(piperidin-1-yl)-1-(4-(trifluoromethyl)phenyl)-1H-1,2,4-triazole-3-carboxamide]
other
  melting point: 159 to 161 °C

## Cc1nc2n(c(=O)c1CCN1CCC(c3noc4cc(F)ccc34)CC1)CCCC2 [Risperidone]
[3]
  weight change with long-term treatment: modest weight changes that are not dose related

## CCCCCCCCCCCCCCCCOc1nc2ccc(C)cc2c(=O)o1 [ATL-962, 2-hexadecyloxy-6-methyl-4H-3,1-benzoxazin-4-one]
[4]; 60, 120 and 240 mg, obese patients
  weight compared to placebo: significant reduction in weight
[4]; phase IIb, obese patients
  safety and tolerability: safe and generally well tolerated
[4]; [10]
  HDL-cholesterol levels: no difference
  LDL-cholesterol: decreased
  Total cholesterol: decreased
[5]; 50 mg to 300 mg
  subjects with a 3-fold or greater increase in fat excretion compared to placebo: 55%
  subjects with a 7-fold or greater increase in fat excretion compared to placebo: 27%
[5]; phase Ib, healthy male volunteers
  safety and tolerability: safe and well tolerated
[6]
  preclinical toxicity: no toxicity was observed

## Cl.O=C(NN1CCCC1)c1nc(-c2ccc(Cl)cc2)n(-c2ccc(Cl)cc2Cl)n1 [Example 2, 5-(4-Chlorophenyl)-1-(2,4-dichlorophenyl)-N-(pyrrolidin-1-yl)-1H-1,2,4-triazole-3-carboxamide hydrochloride]
[7]
  Kb: 63.1 nM
[8]
  Ki: 251 nM
other
  melting point: 248 to 255 °C (dec.)

## Cl.O=C(NN1CCCCC1)c1nc(-c2ccc(Cl)cc2)n(-c2ccc(Cl)cc2Cl)n1
other
  melting point: 238 to 240 °C (dec.)

## CC[C@@H](C)[C@@H](O)[C@H](C)C(=O)[C@H](C)/C=C(\C)C[C@H](C)[C@@H]1OC(=O)[C@H]1C [Ebelactone A]
DTH response
  development of DTH response: enhances the development of DTH response

## O=C1Cc2cc(CCN3CCN(c4nsc5ccccc45)CC3)c(Cl)cc2N1 [ziprasidone]
[3]
  weight change with long-term treatment: smallest

## O=C(NN1CCCCC1)c1nc(-c2cccnc2)n(-c2ccc(Cl)cc2Cl)n1 [Example 16, 1-(2,4-Dichlorophenyl)-N-(piperidin-1-yl)-5-(pyridin-3-yl)-1H-1,2,4-triazole-3-carboxamide]
other
  melting point: 219 °C

## CCCCCCCCCCC[C@@H](C[C@@H]1OC(=O)[C@H]1CCCCCC)OC(=O)[C@H](CC(C)C)NC=O [tetrahydrolipstatin, (2S,3S,5S)-5-((S)-2-4-methylvaleryloxy)-2-heyl-3-hydroxy-hexadecanoic acid lactone]
[5]; 120 mg tid, 5 days, placebo 1.4 g/day
  fat excreted, average: 5.6 (+1-3.8) g/day

## O=C(NN1CCOCC1)c1nc(-c2ccc(Cl)cc2)n(-c2ccc(Cl)cc2Cl)n1 [Example 6, 5-(4-Chlorophenyl)-1-(2,4-dichlorophenyl)-N-(morpholin-4-yl)-1H-1,2,4-triazole-3-carboxamide]
other
  melting point: 184 to 186 °C

## CCCCCCCCCC[C@@H]1C(=O)O[C@H]1C[C@H](CCCCCCC)OC(=O)CNC=O [Panclicin D]
[1]
  irreversibility of pancreatic lipase inhibition: irreversibly inhibit pancreatic lipase
  inhibitory activity, fold stronger than that of THL: 2 fold
  pIC50: 6.18
Plasma lipases
  pIC50: 6.60
[2]
  inhibition of bacterial and fungal lipases: profiles similar to those for porcine pancreatic lipase

## O=C(NN1CCCCC1)c1nc(-c2ccccn2)n(-c2ccc(Cl)cc2Cl)n1 [Example 13, 1-(2,4-Dichlorophenyl)-5-(pyridin-2-yl)-N-(piperidin-1-yl)-1H-1,2,4-triazole-3-carboxamide]
other
  melting point: 191 to 193 °C

## CC(C)(C)ONC(=O)c1nc(-c2ccc(Cl)cc2)n(-c2ccc(Cl)cc2Cl)n1
other
  melting point: 150 to 152 °C

## CCCCCNC(=O)c1nc(-c2ccc(Cl)cc2Cl)n(-c2ccc(Cl)cc2)n1 [Example 11, 1-(4-Chlorophenyl)-5-(2,4-dichlorophenyl)-N-(n-pentyl)-1H-1,2,4-triazole-3-carboxamide]
[8]
  pKi: 6.30

## O=C(NC1CCCCC1)c1nc(-c2ccc(Cl)cc2Cl)n(-c2ccc(Cl)cc2)n1 [Example 9, 1-(4-Chlorophenyl)-N-cyclohexyl-5-(2,4-dichlorophenyl)-1H-1,2,4-triazole-3-carboxamide]
[7]
  Kb: 6.31 nM
[8]
  Ki: 39.8 nM

## Cl.O=C(NN1CCOCC1)c1nc(-c2ccc(Cl)cc2Cl)n(-c2ccc(Cl)cc2)n1
other
  melting point: 224 to 226 °C

## O=C(NC1CCCCC1)c1nc(-c2ccc(Cl)cc2)n(-c2ccc(Cl)cc2Cl)n1 [Example 3, 5-(4-Chlorophenyl)-N-cyclohexyl-1-(2,4-dichlorophenyl)-1H-1,2,4-triazole-3-carboxamide]
[7]
  Kb: 2 nM
[8]
  Ki: 126 nM
other
  melting point: 186 to 188 °C

## CCCCCNC(=O)c1nc(-c2ccc(Cl)cc2)n(-c2ccc(Cl)cc2Cl)n1 [Example 5, 5-(4-Chlorophenyl)-1-(2,4-dichlorophenyl)-N-(n-pentyl)-1H-1,2,4-triazole-3-carboxamide]
[8]
  pKi: 6.90

## Cc1cc2c(s1)Nc1ccccc1N=C2N1CCN(C)CC1 [olanzapine]
[3]
  weight change with long-term treatment: largest weight gains

## Cl.O=C(NN1CCCC1)c1nc(-c2ccc(Cl)cc2Cl)n(-c2ccc(Cl)cc2)n1
other
  melting point: 234 to 236 °C (dec.)

## OCCOCCN1CCN(C2=Nc3ccccc3Sc3ccccc32)CC1 [quetiapine]
[3]
  weight change with long-term treatment: smallest

## CCCCCCCCCCCC[C@@H]1C(=O)O[C@H]1C[C@H](CCCCCCC)OC(=O)CNC=O [Panclicin E]
[1]
  irreversibility of pancreatic lipase inhibition: irreversibly inhibit pancreatic lipase
  inhibitory activity, fold stronger than that of THL: 2 fold
  pIC50: 6.05
Plasma lipases
  pIC50: 6.82
[2]
  inhibition of bacterial and fungal lipases: profiles similar to those for porcine pancreatic lipase

## CC[C@@H](C)[C@@H](O)[C@H](C)C(=O)[C@H](C)/C=C(\C)C[C@H](C)[C@@H]1OC(=O)[C@H]1CC [Ebelactone B]
[9]
  carragheenin-induced swelling: reduces carragheenin-induced swelling
DTH response
  development of DTH response: enhances the development of DTH response
